Where “and” joins values, the source holds several entries; their conditions need not be identical. Equal entries are not always repeated. Entries after “also recorded” stand apart in the source; their conditions may differ.
Key:
[1] = L-012 assay: inhibition of SIN-1 generated peroxynitrite induced luminescence/fluorescence of L-012; format: biochemical; settings: 15 minute time point; average of three plates
Protocol: Luminol like compound “L-012” is a chemilumescent probe that is activated by the presence of a ROS and/or RNS such as peroxynitrite. In this assay L-012 was oxidized by the addition of 3-Morpholino-sydnonimine (“SIN-1”), a known peroxynitrite generator. The emitted fluorescence was directly proportional to the concentration of SIN-1. The compounds of the invention were then assessed for their ability to scavenge peroxynitrite by blocking the increase of peroxynitrite induced fluorescence. Concentrations of compound producing 50% inhibition of the fluorescence signal (IC50 values) were calculated by testing the compounds of the invention at various concentrations and averaging the IC50 of three plates.
The following solutions were added to white polystyrene, non-sterile 96-well plate (Costar #3912): 196 μL of 50 μM L-012; 2 μL of the test compound; and 24 μL of 500 mM SIN-1. Fresh stock of 50 μM L-012 in PBS pH 7.4 was made for each 96 well plate that was analyzed. The plates were read in a FlexStation3 (Molecular Devices) using the luminescent mode at 37° C. for 30 min, with a measurement every 30 seconds and an integration time of 100 msec.
Luminescence signal was recorded by the FlexStation3 kinetically at 37° C. for 30 minutes, with a measurement every 30 seconds and an integration time of 100 msec. The data in rows A and H were dropped from each plate to exclude the possibility of an ‘edge effect’. Thus, each test compound had 3 replicates per plate.

[2] = system: FCA induced tactile allodynia; assay: FCA induced tactile allodynia (electronic von Frey); format: in vivo, rat
Protocol: (§1) Compound 2 was evaluated in the rat Freund's complete adjuvant (FCA) model of inflammatory pain. The rat Freund's complete adjuvant (FCA) intraplantar model of inflammatory pain produces behaviors similar to those observed in patients and has been widely used to assess novel pharmacological treatments (Lam et al., 2008, J Ethnopharmacol. 120:44-50). The positive control was celecoxib (TRC, Montreal), and the negative control was vehicle (0.5% methyl cellulose, in phosphate buffered saline). […] The Hargreaves apparatus was obtained from Ugo Basile, Italy. The Freund's complete adjuvant was obtained from Sigma, St. Louis, and the electronic von frey was obtained from Stoelting, Ill. For this assay, paw withdrawal latency to a thermal stimulus was assessed using a radiant heat source (Ugo Basile, Italy) aimed at the plantar surface of the left hind paw (Hargreaves test; […] Paw withdrawal thresholds to a non-noxious tactile stimulus was assessed using an electronic von Frey apparatus that presented an increasing mechanical force to the plantar surface of the hind paw. Paw volume was measured by displacement of water and assuming a tissue density equal to that of water. […] Celecoxib (30 mg/kg p.o.) served as the positive control. […] After induction of anesthesia, the injection site was prepared in a sterile manner and 100 μl of a 50% suspension of FCA injected. After injection, animals were weighed and allowed to recover before being returned to their home cages. Statistical significance was determined on untransformed data using a two-way analysis of variance (Graphpad Prism, NC). Significant main effects were analyzed further by subsequent Bonferronni post-hoc test. The level of significance was set at p<0.05. Data are shown as mean±S.E.M. (with an asterisk to denote significance as compared to vehicle treated controls).

FCA induced edema = FCA induced edema (paw volume); format: in vivo, rat
Protocol: as §1

[3] = system: spinal nerve ligation induced tactile allodynia; assay: Spinal nerve ligation (SNL, Chung model) induced tactile allodynia (von Frey filaments); format: in vivo, rat; settings: for Paw withdrawal threshold: FIG. 24, fasted; for Paw withdrawal threshold / Paw threshold: individual animals; for Paw threshold: FIG. 25, gabapentin (positive control, 100 mg/kg i.p.)
ataxia (rotarod) = assay: Accelerating rotarod assay of ataxia (latency to fall); format: in vivo, rat; settings: for Latency to fall: Haloperidol 3 mg/kg p.o., maximum 300 seconds, individual animals
Protocol: Compound 2 was evaluated in a rat accelerating rotarod model of ataxia. Ataxia is a common clinical problem with CNS-active compounds and can often confound interpretation of efficacy in preclinical pain models. The rotarod assay of ataxia has been widely used to assess the side-effect liability of novel pharmacological treatments (Jones & Roberts, 1968, J. Pharm. […] The positive control was haloperidol (Sigma, St. […] Male Sprague-Dawley Rats (Harlan, Ill.) were 250-300 g at time of dosing. Rotarod was obtained from IITC, CA. To examine the potential effects of Compound 2 on motor performance, rats were tested on an accelerating rotarod (IITC, Ca). […] Rats received two timed training trials (averaged to give the reported baseline) on the first day, then 24 hr later rats were administered Compound 2 (30, 100 and 300 mg/kg, p.o.), haloperidol (3 mg/kg, p.o.), the positive control, or vehicle. […] Statistical significance was determined on untransformed data using a two-way analysis of variance (Graphpad Prism, NC). Significant main effects were analyzed further by subsequent Bonferronni post-hoc test. The level of significance was set at p<0.05. Data are shown as mean±S.E.M. (with an asterisk to denote significance as compared to vehicle treated controls).

**Q.** Which IC50 [1] does the source give for `CC1(C)SC(Nc2ccccc2O)=N[C@H]1C(=O)O` [Compound 1, (S)-2-(2-hydroxyphenylamino)-thiazoline-5,5-dimethyl-4-carboxylic acid] here?
**A.** 270 nM

**Q.** Which IC50 [1] does the source give for `COC(=O)[C@@H]1N=C(Nc2cc(Cl)ccc2O)SC1(C)C` [Compound 20, (S)-2-(2-Hydroxy-5-chlorophenylamino)-thiazoline-5,5-dimethyl-4-carboxylic acid methyl ester] here?
**A.** 550 nM

**Q.** For `CC1(C)SC(Nc2cc(Cl)ccc2O)=N[C@H]1C(=O)O` [Compound 21, (S)-2-(2-Hydroxy-5-chlorophenylamino)-thiazoline-5,5-dimethyl-4-carboxylic acid], which IC50 [1] is on record?
**A.** 260 nM

**Q.** Which IC50 [1] does the source give for `Cc1ccc(O)c(NC2=N[C@@H](C(=O)O)C(C)(C)S2)c1` [Compound 24, (S)-2-(2-Hydroxy-5-methylphenylamino)-thiazoline-5,5-dimethyl-4-carboxylic acid] here?
**A.** 540 nM

**Q.** With `COc1ccc(NC2=N[C@@H](C(=O)O)C(C)(C)S2)c(O)c1` [Compound 26, (S)-2-(2-Hydroxy-4-methoxyphenylamino)-thiazoline-5,5-dimethyl-4-carboxylic acid] as the molecule, how does the IC50 [1] read?
**A.** 140 nM

**Q.** With `COC(=O)[C@@H]1N=C(Nc2ccc(OC)cc2O)SC1(C)C` [Compound 27, (S)-2-(2-Hydroxy-4-methoxyphenylamino)-thiazoline-5,5-dimethyl-4-carboxylic acid methyl ester] as the molecule, how does the IC50 [1] read?
**A.** 300 nM

**Q.** Which “Paw withdrawl threshold” value ([2]; 60 (min post-dose), celecoxib 30 mg/kg p.o. 24 hours post-FCA) does the source give for `Cc1ccc(-c2cc(C(F)(F)F)nn2-c2ccc(S(N)(=O)=O)cc2)cc1` [celecoxib, reference compound] here?
**A.** 29.9 g and 32.4 g and 19.8 g and 23.2 g and 30.9 g

**Q.** What about the “Paw withdrawl threshold” value ([2]; baseline (pre-FCA), celecoxib 30 mg/kg group, individual rats) of the same molecule?
**A.** 31.8 g (2×) and 39.4 g and 25.93 g and 36.6 g and 37.73 g

**Q.** And the “Paw volume” value (FCA induced edema; 24 hrs post, Celecoxib (30 mg/kg p.o.), FIG. 20A)?
**A.** 2.8 mL and 3.1 mL and 2.7 mL and 3 mL and 2.2 mL

**Q.** What about the “Paw volume” value (FCA induced edema; 48 hrs post, Celecoxib (30 mg/kg p.o.), FIG. 20A) of the same molecule?
**A.** 2.7 mL and 2.8 mL and 2.2 mL

**Q.** And the “Paw volume” value (FCA induced edema; FCA/celecoxib, 30 mg/kg p.o., 1 hr (D2), individual animals, 30 mg/kg)?
**A.** 2.3 mL (2×) and 2.6 mL and 2.4 mL (2×) and 2.7 mL (2×) and 2.5 mL

**Q.** And the “Paw volume” value (FCA induced edema; FCA/celecoxib, 30 mg/kg p.o., 1 hr, individual animals, 30 mg/kg)?
**A.** 2.7 mL (3×) and 2.9 mL and 2.6 mL and 3.1 mL and 3 mL (2×)

**Q.** What about the “Paw volume” value (FCA induced edema; FCA/celecoxib, 30 mg/kg p.o., 3 hrs (D2), individual animals, 30 mg/kg) of the same molecule?
**A.** 2.4 mL and 2.5 mL (2×) and 2.3 mL (2×) and 2.7 mL and 2.6 mL and 2.8 mL

**Q.** What about the “Paw volume” value (FCA induced edema; FCA/celecoxib, 30 mg/kg p.o., 3 hrs, individual animals, 30 mg/kg) of the same molecule?
**A.** 2.7 mL (3×) and 2.9 mL (2×) and 2.8 mL and 3.1 mL and 2.6 mL

**Q.** What about the “Paw volume” value (FCA induced edema; FCA/celecoxib, 30 mg/kg p.o., Pre-Drug (D2), individual animals, 30 mg/kg) of the same molecule?
**A.** 2.4 mL and 2.6 mL (2×) and 2.3 mL (2×) and 2.5 mL and 2.7 mL and 2.8 mL

**Q.** What about the “Paw volume” value (FCA induced edema; FCA/celecoxib, 30 mg/kg p.o., Pre-Drug, individual animals, 30 mg/kg) of the same molecule?
**A.** 2.8 mL (3×) and 3.1 mL (2×) and 2.9 mL and 3 mL and 3.2 mL

**Q.** And the “Paw volume” value (FCA induced edema; FCA/celecoxib, 30 mg/kg p.o., Pre-FCA (baseline), individual animals, 30 mg/kg)?
**A.** 1.7 mL (6×) and 1.8 mL and 1.9 mL

**Q.** And the “Paw volume” value (FCA induced edema; Pre-FCA, Celecoxib (30 mg/kg p.o.) group, individual rats, FIG. 20A)?
**A.** 1.8 mL and 1.9 mL (2×) and 1.7 mL (2×) and 1.5 mL

**Q.** For `NCC1(CC(=O)O)CCCCC1` [gabapentin, reference compound], which “Paw withdrawal threshold” value ([3]; gabapentin 100 mg/kg i.p., 3 hrs (D1)) is on record?
**A.** 15 g (4×) and 5.18 g and 3.67 g and 6.58 g and 5.56 g

**Q.** And the “Paw withdrawal threshold” value ([3]; gabapentin 100 mg/kg i.p., 3 hrs (D3))?
**A.** 15 g (3×) and 3.33 g and 11.69 g and 8.61 g and 6.58 g and 9.86 g

**Q.** What about the “Paw withdrawal threshold” value ([3]; gabapentin 100 mg/kg i.p., 5 hrs (D1)) of the same molecule?
**A.** 10.31 g and 5.56 g and 6.58 g (2×) and 1.99 g and 6.66 g and 7.94 g and 6.4 g

**Q.** What about the “Paw withdrawal threshold” value ([3]; gabapentin 100 mg/kg i.p., 5 hrs (D3)) of the same molecule?
**A.** 15 g (2×) and 4.4 g and 4.72 g and 2.37 g and 6.58 g and 7.31 g and 6.66 g

**Q.** What about the “Paw withdrawal threshold” value ([3]; gabapentin 100 mg/kg i.p., Pre-Drug (D1)) of the same molecule?
**A.** 6.64 g and 1.65 g and 1.33 g and 1.56 g and 2.81 g (2×) and 4.23 g and 5.04 g

**Q.** And the “Paw withdrawal threshold” value ([3]; gabapentin 100 mg/kg i.p., Pre-Drug (D3))?
**A.** 6.64 g and 1.56 g and 1.4 g and 1.65 g and 5.57 g and 3.55 g and 3.58 g and 2.81 g

**Q.** What about the “Paw withdrawal threshold” value ([3]; gabapentin 100 mg/kg i.p., Pre-Sx) of the same molecule?
**A.** 15 g

**Q.** What about the “Paw threshold” value ([3]; 1 wk, 100 mg/kg) of the same molecule?
**A.** 1.56 g (2×) and 6.58 g (2×) and 3.73 g and 2.2 g and 4.25 g and 1.4 g

**Q.** What about the “Paw threshold” value ([3]; 2 wks, 100 mg/kg) of the same molecule?
**A.** 0.99 g and 1.31 g and 3.13 g and 1.4 g (2×) and 2.81 g (3×)

**Q.** And the “Paw threshold” value ([3]; Pre-Sx)?
**A.** 15 g

**Q.** What about the “reversal of SNL tactile allodynia, positive control” value ([3]; rat, gabapentin 100 mg/kg i.p., 3 and 5 hours after each administration) of the same molecule?
**A.** consistently produced a statistically significant reversal of allodynia; also recorded: statistically significant reversal of hyperalgesia

**Q.** And the “development of SNL tactile allodynia, positive control dosed only on day of surgery” value ([3]; rat, gabapentin, FIG. 25)?
**A.** failed to alter the course of development of allodynia

**Q.** What does the source list for `O=C(CCCN1CCC(O)(c2ccc(Cl)cc2)CC1)c1ccc(F)cc1` [haloperidol, reference compound]?
**A.** Latency to fall (ataxia (rotarod); Baseline): 60 s and 38 s and 42.5 s and 59 s and 68 s and 48 s and 86 s and 62 s and 71 s and 80 s and 57 s; Latency to fall (ataxia (rotarod); Post-Drug (1 hr)): 9 sec and 10 sec (2×) and 7 sec and 2 sec (2×) and 5 sec (2×) and 6 sec and 30 sec and 15 sec; latency to fall, accelerating rotarod, positive control (ataxia (rotarod); rat, haloperidol 3 mg/kg p.o., 1 h post-administration): significant motor deficits; also recorded: substantial reduction in latency

Reference: patent US9102636B2, “Analgesic compounds, compositions, and uses thereof” (Galleon Pharmaceuticals, Inc., priority 2010, dated 2015)
